# Test results published in ChEMBL document CHEMBL5728724, “6-aryl-7-substituted-3-(1H-pyrazol-5-yl)-7H-[1,2,4]triazolo[3,4-b][1,3,4]thiadiazines as inhibitors of the STAT3 pathway with anti-proliferative activity” (2021).
# Target: T1, Signal transducer and activator of transcription 1-alpha/beta (Homo sapiens, UniProt P42224)
# T1 sequence (P42224 whole entry): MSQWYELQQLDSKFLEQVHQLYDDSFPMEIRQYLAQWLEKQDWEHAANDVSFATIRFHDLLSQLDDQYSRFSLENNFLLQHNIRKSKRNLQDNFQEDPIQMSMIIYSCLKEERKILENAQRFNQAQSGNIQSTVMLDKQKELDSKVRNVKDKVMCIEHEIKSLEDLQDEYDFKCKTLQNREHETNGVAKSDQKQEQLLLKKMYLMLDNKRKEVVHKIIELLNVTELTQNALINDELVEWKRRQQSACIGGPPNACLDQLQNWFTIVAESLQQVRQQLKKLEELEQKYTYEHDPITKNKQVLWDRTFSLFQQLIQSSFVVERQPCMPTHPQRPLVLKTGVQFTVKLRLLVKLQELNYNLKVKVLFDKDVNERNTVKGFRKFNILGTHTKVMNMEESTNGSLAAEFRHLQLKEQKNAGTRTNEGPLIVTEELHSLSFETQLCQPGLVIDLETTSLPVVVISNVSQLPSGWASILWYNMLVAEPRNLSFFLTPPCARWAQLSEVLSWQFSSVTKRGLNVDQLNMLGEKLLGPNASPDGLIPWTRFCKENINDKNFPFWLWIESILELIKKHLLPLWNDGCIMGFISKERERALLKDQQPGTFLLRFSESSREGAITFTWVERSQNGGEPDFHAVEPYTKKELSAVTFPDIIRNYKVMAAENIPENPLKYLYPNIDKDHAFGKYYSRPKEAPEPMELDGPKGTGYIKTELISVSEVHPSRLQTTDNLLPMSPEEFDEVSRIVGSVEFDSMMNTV
# Assay: Bioassay: Compound samples (in 3-5 mg quantities) were evaluated in a variety of assays. All compound submissions were fully characterized (1H, 13C, IR, FIRMS), satisfied purity criteria (≥95% LC/MC, ELS).
row,SMILES,IC50 [µM]
1,COc1ccc(C2=Nn3c(nnc3-c3[nH]nc4c3CCC4)SC2C(C)C)cc1 (centres undefined),> 50
2,c1ccc(-c2cc(-c3nnc4n3N=C(c3ccncc3)CS4)[nH]n2)cc1,> 50
3,CC1Sc2nnc(-c3cc(-c4ccc(F)cc4)n[nH]3)n2N=C1c1ccccc1 (centres undefined),> 30
4,Clc1ccc(C2=Nn3c(nnc3-c3cc(-c4ccccc4)n[nH]3)SC2)s1,> 50
5,c1ccc(C2=Nn3c(nnc3-c3cc(-c4ccccc4)[nH]n3)SC2)cc1,> 50
6,COc1ccc(C2=Nn3c(nnc3-c3cc(-c4ccc(F)cc4)n[nH]3)SC2C)cc1 (centres undefined),> 30
7,C1=Nn2c(nnc2-c2cc(-c3ccccc3)n[nH]2)SC1,> 50
8,Clc1ccc(C2=Nn3c(nnc3-c3cc(-c4ccccc4)n[nH]3)SC2)cc1Cl,> 50
9,CC1=Nn2c(nnc2-c2cc(-c3ccccc3)[nH]n2)SC1,> 50

# More lines, now with the values ahead:
row,IC50 [µM],SMILES
1,> 50,C1CCC(C2=Nn3c(nnc3-c3[nH]nc4c3CCC4)SC2)CC1
2,> 50,c1cc(C2=Nn3c(nnc3-c3[nH]nc4c3CCC4)SC2)ccn1
3,> 50,c1ccc(C2=Nn3c(nnc3-c3[nH]nc4c3CCC4)SC2)cc1
4,> 50,Clc1ccc(C2=Nn3c(nnc3-c3[nH]nc4c3CCC4)SC2)cc1
5,> 50,c1ccc(-c2cc(-c3nnc4n3N=C(C3CCCCC3)CS4)[nH]n2)cc1
6,> 50,Clc1ccc(C2=Nn3c(nnc3-c3[nH]nc4c3CCC4)SC2)s1
7,> 50,CC(C)C1Sc2nnc(-c3[nH]nc4c3CCC4)n2N=C1c1ccc(Cl)c(Cl)c1 (centres undefined)
8,> 50,COc1ccc(C2=Nn3c(nnc3-c3[nH]nc4c3CCC4)SC2C)cc1 (centres undefined)
9,> 50,CC1=Nn2c(nnc2-c2[nH]nc3c2CCC3)SC1
10,> 50,C1=Nn2c(nnc2-c2[nH]nc3c2CCC3)SC1
